For experiment [1], the system named is Staphylococcus haemolyticus. The experiment can be described thus: Antimicrobial activity against lincomycin resistant Staphylococcus haemolyticus isolate 123PL harboring lnuA gene incubated at 37 degC for 24 hrs by agar dilution method. (In general: In agar dilution the substance is mixed into plates at graded concentrations.)
The subject of experiment [2] is Staphylococcus haemolyticus. Description: Antimicrobial activity against lincomycin, clindamycin resistant Staphylococcus haemolyticus isolate 29OL harboring vgaALC gene incubated at 37 degC for 24 hrs by agar dilution method.
For experiment [3], the system named is Staphylococcus epidermidis. Description: Antimicrobial activity against erythromycin, inducible lincomycin, inducible clindamycin resistant Staphylococcus epidermidis isolate 32PL harboring ermC gene incubated at 37 degC for 24 hrs by agar dilution method.
The subject of experiment [4] is Staphylococcus epidermidis. The experiment can be described thus: Antimicrobial activity against erythromycin, lincomycin, clindamycin resistant Staphylococcus epidermidis isolate 44KR harboring ermC gene incubated at 37 degC for 24 hrs by agar dilution method.
The subject of experiment [5] is Staphylococcus epidermidis. Description: Antimicrobial activity against lincomycin resistant Staphylococcus epidermidis isolate 102OL harboring lnuA gene incubated at 37 degC for 24 hrs by agar dilution method.
Experiment [6] concerns Staphylococcus haemolyticus. Description: Antimicrobial activity against erythromycin, lincomycin, clindamycin resistant Staphylococcus haemolyticus isolate 134PL harboring ermC gene incubated at 37 degC for 24 hrs by agar dilution method.
Experiment [7] deals with Staphylococcus haemolyticus. Description: Antimicrobial activity against erythromycin, lincomycin resistant Staphylococcus haemolyticus isolate 113OL harboring msrA lnuA gene incubated at 37 degC for 24 hrs by agar dilution method.
Experiment [8] concerns Staphylococcus epidermidis. Description: Antimicrobial activity against erythromycin, lincomycin, clindamycin resistant Staphylococcus epidermidis isolate 32OL harboring msrA lnuA vgaALC gene incubated at 37 degC for 24 hrs by agar dilution method.
Experiment [9] relates to Staphylococcus aureus. The experiment can be described thus: Antimicrobial activity against Staphylococcus aureus isolate CIP 107907 harboring vgaA gene incubated at 37 degC for 24 hrs by agar dilution method. To be noted: isolate CIP 107907, 24 h.
The test system of experiment [10] is Staphylococcus haemolyticus. Description: Antimicrobial activity against erythromycin, inducible lincomycin, inducible clindamycin resistant Staphylococcus haemolyticus isolate 31UL harboring ermC gene incubated at 37 degC for 24 hrs by agar dilution method.
Experiment [11] has as its system Staphylococcus haemolyticus. The experiment can be described thus: Antimicrobial activity against erythromycin resistant Staphylococcus haemolyticus isolate 202BB harboring msrA gene incubated at 37 degC for 24 hrs by agar dilution method.
The subject of experiment [12] is Staphylococcus epidermidis. The experiment can be described thus: Antimicrobial activity against erythromycin resistant Staphylococcus epidermidis isolate 129OV harboring msrA gene incubated at 37 degC for 24 hrs by agar dilution method.
Experiment [13] has as its system Staphylococcus aureus. The experiment can be described thus: Antimicrobial activity against Staphylococcus aureus ATCC 29213 incubated at 37 degC for 24 hrs by agar dilution method. To be noted: ATCC 29213, 24 h.
Experiment [14] deals with Staphylococcus haemolyticus. Description: Antimicrobial activity against erythromycin, lincomycin, clindamycin resistant Staphylococcus haemolyticus isolate 65OL harboring ermC vgaALC gene incubated at 37 degC for 24 hrs by agar dilution method.
The subject of experiment [15] is Staphylococcus epidermidis. The experiment can be described thus: Antimicrobial activity against erythromycin, lincomycin, clindamycin resistant Staphylococcus epidermidis isolate 1036UL harboring ermC vgaALC gene incubated at 37 degC for 24 hrs by agar dilution method.

SMILES strings stand for the structures. Values after ≈ are worked out from the molar mass of the structure shown.

The term MIC denotes the lowest concentration found to suppress growth. Consider `CCC[C@@H]1C[C@@H](C(=O)N[C@@H]([C@H]2O[C@H](SC)[C@H](O)[C@@H](O)[C@H]2O)[C@@H](C)O)N(C)C1` [LINCOMYCIN], for which the MIC came to 128 µg/mL (≈ 315 µM) in experiment [1]; 64 µg/mL (≈ 157 µM) in experiment [2]; 1 µg/mL (≈ 2.46 µM) in [3]; 64 µg/mL (≈ 157 µM) in experiment [4]; 64 µg/mL (≈ 157 µM) in [5]; 32 µg/mL (≈ 78.7 µM) in experiment [6]. Further, the MIC in [7] is 128 µg/mL (≈ 315 µM); in experiment [8] it was more than 256 µg/mL; in the experiment with Staphylococcus aureus [9], 4 µg/mL (≈ 9.84 µM); in [10] it was 1 µg/mL (≈ 2.46 µM); in experiment [11] it was 1 µg/mL (≈ 2.46 µM); in experiment [12] it was 1 µg/mL (≈ 2.46 µM). The MIC in the experiment with Staphylococcus aureus [13] is 1 µg/mL (≈ 2.46 µM); in experiment [14], 128 µg/mL (≈ 315 µM); in experiment [15], more than 256 µg/mL.

Consider `CCCCC[C@@H]1C[C@@H](C(=O)N[C@@H]([C@H]2O[C@H](SC)[C@H](O)[C@@H](O)[C@H]2O)[C@@H](C)O)N(C)C1`, for which the minimum inhibitory concentration (MIC) in experiment [1] was 8 µg/mL (≈ 18.4 µM); in [2], 32 µg/mL (≈ 73.6 µM); in experiment [3], 0.25 µg/mL (≈ 0.575 µM); in [4] it was 64 µg/mL (≈ 147 µM); in [5], 2 µg/mL (≈ 4.6 µM); in experiment [6], 32 µg/mL (≈ 73.6 µM). The MIC in experiment [7] stood at 8 µg/mL (≈ 18.4 µM); in experiment [8] it was 64 µg/mL (≈ 147 µM); in the experiment on Staphylococcus aureus [9], 0.5 µg/mL (≈ 1.15 µM); in experiment [10] it was 0.5 µg/mL (≈ 1.15 µM); in experiment [11] it was 0.25 µg/mL (≈ 0.575 µM); in experiment [12], 0.25 µg/mL (≈ 0.575 µM). In addition, the minimum inhibitory concentration (MIC) came out at 0.25 µg/mL (≈ 0.575 µM) with Staphylococcus aureus [13], 128 µg/mL (≈ 295 µM) in experiment [14] and 64 µg/mL (≈ 147 µM) in experiment [15].

For `CCC[C@@H]1C[C@@H](C(=O)N[C@@H]([C@H]2O[C@H](SC)[C@H](O)[C@@H](O)[C@H]2O)[C@H](C)Cl)N(C)C1` [CLINDAMYCIN], the MIC in experiment [1] is 2 µg/mL (≈ 4.71 µM); in experiment [2], 16 µg/mL (≈ 37.6 µM); in [3] it was 0.125 µg/mL (≈ 0.294 µM); in [4], more than 16 µg/mL; in experiment [5], 1 µg/mL (≈ 2.35 µM); in experiment [6] it was more than 16 µg/mL. The MIC is 1 µg/mL (≈ 2.35 µM) in experiment [7]; 16 µg/mL (≈ 37.6 µM) in experiment [8]; 0.25 µg/mL (≈ 0.588 µM) against Staphylococcus aureus [9]; 0.5 µg/mL (≈ 1.18 µM) in [10]; 0.125 µg/mL (≈ 0.294 µM) in experiment [11]; 0.25 µg/mL (≈ 0.588 µM) in experiment [12]. The minimal inhibitory concentration (MIC) against Staphylococcus aureus [13] was 0.125 µg/mL (≈ 0.294 µM); in experiment [14] it was 4 µg/mL (≈ 9.41 µM); in [15], more than 16 µg/mL.

(Values after ChEMBL document CHEMBL1212782, “Mutasynthesis of lincomycin derivatives with activity against drug-resistant staphylococci” (2010).)
